Entries after “also recorded” stand apart in the source; their conditions may differ. Read-outs that look alike come from different tables or passages of the source.
Legend:
[1] = molecular target: human DAT (hDAT) (Homo sapiens, UniProt Q01959); test: Radiotracer uptake inhibition in HEK293 cells expressing hDAT; format: cell-based; settings: for DAT / NET ratio (uptake inhibition): 1/(DAT IC50) divided by 1/(NET IC50); for DAT / SERT ratio (uptake inhibition): 1/(DAT IC50) divided by 1/(SERT IC50); for IC50: IC50 DAT, inhibition of transporter-mediated uptake, hDAT, [3H]MPP+ 20 nM, mean ± SEM, n=3
Chain of human DAT (hDAT) (Q01959 whole entry): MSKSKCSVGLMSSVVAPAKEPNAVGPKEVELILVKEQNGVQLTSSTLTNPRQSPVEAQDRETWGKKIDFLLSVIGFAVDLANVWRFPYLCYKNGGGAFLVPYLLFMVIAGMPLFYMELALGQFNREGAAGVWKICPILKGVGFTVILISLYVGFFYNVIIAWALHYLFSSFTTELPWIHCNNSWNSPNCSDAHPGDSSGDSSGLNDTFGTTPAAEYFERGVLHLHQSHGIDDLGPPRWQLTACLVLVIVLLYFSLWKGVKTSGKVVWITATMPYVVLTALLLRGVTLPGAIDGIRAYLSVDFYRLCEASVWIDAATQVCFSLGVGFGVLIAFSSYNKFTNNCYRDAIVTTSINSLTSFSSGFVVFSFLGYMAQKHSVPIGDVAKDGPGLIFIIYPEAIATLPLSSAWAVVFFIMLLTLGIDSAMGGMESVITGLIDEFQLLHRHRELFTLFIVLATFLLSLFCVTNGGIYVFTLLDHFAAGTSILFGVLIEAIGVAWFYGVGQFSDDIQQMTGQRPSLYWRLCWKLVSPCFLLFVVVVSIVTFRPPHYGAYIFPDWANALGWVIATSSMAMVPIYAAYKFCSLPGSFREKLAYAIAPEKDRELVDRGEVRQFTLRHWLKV

[2] = molecular target: human NET (hNET) (Homo sapiens, UniProt P23975); test: Radiotracer uptake inhibition in HEK293 cells expressing hNET; format: cell-based; settings: for NET / SERT ratio (uptake inhibition): 1/(NET IC50) divided by 1/(SERT IC50); for IC50: IC50 NET, inhibition of transporter-mediated uptake, hNET, [3H]MPP+ 20 nM, mean ± SEM, n=3
Chain of human NET (hNET) (P23975 whole entry): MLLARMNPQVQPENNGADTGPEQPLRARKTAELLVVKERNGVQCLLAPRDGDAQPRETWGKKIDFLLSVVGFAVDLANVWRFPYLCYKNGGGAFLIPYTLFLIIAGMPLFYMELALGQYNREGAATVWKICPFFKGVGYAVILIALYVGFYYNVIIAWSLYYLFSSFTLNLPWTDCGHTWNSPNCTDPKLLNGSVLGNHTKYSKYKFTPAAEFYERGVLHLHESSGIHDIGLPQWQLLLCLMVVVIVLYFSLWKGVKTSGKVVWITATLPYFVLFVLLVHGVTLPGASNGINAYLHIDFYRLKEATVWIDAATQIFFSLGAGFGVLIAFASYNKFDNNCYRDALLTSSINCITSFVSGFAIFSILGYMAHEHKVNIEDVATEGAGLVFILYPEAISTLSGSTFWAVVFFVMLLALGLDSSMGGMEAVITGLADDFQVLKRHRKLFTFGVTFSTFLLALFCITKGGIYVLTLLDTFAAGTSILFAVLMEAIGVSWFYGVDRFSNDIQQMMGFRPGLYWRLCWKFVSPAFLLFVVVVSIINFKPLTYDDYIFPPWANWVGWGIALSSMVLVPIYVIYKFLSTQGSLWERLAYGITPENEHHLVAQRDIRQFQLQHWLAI

[3] = molecular target: human SERT (hSERT) (Homo sapiens, UniProt P31645); test: Radiotracer uptake inhibition in HEK293 cells expressing hSERT; format: cell-based; settings: for IC50: IC50 SERT, inhibition of transporter-mediated uptake, hSERT, [3H]5HT 100 nM, mean ± SEM, n=3
Chain of human SERT (hSERT) (P31645 whole entry): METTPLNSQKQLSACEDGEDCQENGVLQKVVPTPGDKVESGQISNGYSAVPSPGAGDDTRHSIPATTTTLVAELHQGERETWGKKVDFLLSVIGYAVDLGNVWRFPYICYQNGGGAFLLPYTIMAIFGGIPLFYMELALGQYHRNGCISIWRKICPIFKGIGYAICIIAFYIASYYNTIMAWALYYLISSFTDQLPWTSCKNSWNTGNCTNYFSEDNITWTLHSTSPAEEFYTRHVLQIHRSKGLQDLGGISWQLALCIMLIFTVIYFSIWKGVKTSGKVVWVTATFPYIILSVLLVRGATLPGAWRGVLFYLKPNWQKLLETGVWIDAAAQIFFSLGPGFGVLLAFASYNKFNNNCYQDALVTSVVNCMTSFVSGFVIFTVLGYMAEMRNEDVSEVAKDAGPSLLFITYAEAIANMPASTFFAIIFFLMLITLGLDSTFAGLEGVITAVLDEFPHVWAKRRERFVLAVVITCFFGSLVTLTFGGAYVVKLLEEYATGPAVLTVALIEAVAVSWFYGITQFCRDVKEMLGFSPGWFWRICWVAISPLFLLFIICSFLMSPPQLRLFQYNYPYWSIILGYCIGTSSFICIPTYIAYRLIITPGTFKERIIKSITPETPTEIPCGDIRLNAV

[4] = molecular target: T1, hDAT (Homo sapiens, UniProt Q01959); format: cell-based; settings: 5 µM, without monensin, HEK293 cells
T1 sequence (Q01959 whole entry): as the sequence (Q01959 whole entry) above

[5] = molecular target: hNET (Homo sapiens, UniProt P23975); format: cell-based; settings: 5 µM, without monensin, HEK293 cells
Chain of hNET (P23975 whole entry): as the sequence (P23975 whole entry) above

[6] = molecular target: T2, hSERT (Homo sapiens, UniProt P31645); format: cell-based; settings: 5 µM, without monensin, HEK293 cells
T2 sequence (P31645 whole entry): as the sequence (P31645 whole entry) above

[7] = molecular target: T3, DAT (Rattus norvegicus, UniProt P23977); test: Release of [3H]MPP+ from rat striatal synaptosomes; format: biochemical; settings: for DAT / NET ratio (release): 1/(DAT EC50) divided by 1/(NET EC50); for DAT / NET ratio (release) / DAT / SERT ratio (release): rat brain synaptosomes; for DAT / SERT ratio (release): 1/(DAT EC50) divided by 1/(SERT EC50)
T3 sequence (P23977 whole entry): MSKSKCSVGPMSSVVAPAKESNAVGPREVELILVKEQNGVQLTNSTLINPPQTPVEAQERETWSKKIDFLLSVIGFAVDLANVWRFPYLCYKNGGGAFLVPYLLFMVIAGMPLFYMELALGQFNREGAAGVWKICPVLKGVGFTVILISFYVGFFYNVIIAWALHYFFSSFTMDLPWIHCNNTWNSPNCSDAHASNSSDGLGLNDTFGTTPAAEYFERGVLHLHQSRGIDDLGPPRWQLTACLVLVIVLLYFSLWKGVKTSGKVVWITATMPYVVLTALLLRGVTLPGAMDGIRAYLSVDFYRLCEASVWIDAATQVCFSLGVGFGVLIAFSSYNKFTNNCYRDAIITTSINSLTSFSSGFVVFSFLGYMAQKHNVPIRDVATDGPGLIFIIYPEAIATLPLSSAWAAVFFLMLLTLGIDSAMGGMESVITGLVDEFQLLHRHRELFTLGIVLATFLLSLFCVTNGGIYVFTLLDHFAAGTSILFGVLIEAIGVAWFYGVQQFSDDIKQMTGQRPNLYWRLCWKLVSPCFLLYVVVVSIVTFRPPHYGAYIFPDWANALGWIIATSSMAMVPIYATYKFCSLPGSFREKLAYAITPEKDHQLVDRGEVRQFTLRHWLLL

[8] = system: NET; test: Release of [3H]MPP+ from rat brain synaptosomes; format: biochemical; settings: 1/(NET EC50) divided by 1/(SERT EC50)
[9] = molecular target: SERT (Rattus norvegicus, UniProt P31652); test: Release of [3H]5-HT from rat brain synaptosomes; format: biochemical
Chain of SERT (P31652 whole entry): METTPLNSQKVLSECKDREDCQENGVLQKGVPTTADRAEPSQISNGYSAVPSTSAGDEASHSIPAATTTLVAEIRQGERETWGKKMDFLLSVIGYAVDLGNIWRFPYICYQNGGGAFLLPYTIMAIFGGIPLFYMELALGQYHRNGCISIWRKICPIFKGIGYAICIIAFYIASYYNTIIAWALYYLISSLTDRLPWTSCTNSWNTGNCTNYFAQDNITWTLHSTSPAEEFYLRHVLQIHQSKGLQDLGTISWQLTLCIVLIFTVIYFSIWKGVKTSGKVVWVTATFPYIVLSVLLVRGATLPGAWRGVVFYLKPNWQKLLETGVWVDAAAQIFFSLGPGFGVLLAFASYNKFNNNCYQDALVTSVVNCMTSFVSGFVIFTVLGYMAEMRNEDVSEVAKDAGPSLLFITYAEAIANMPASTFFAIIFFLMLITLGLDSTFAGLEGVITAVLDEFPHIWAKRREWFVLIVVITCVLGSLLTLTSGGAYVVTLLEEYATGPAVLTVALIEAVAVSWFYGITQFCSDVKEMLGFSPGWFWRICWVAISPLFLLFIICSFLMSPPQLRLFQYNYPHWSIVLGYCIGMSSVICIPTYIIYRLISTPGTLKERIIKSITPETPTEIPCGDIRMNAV

[10] = molecular target: T2, hSERT; settings: for Ionic current mediated via hSERT: cells clamped to −60 mV, representative traces; for Kind of current evoked in SERT-expressing cells: whole-cell patch clamp, in words
[11] = system: vesicular monoamine transporter 2 (VMAT2); settings: at concentrations up to 100 μM; ref Partilla et al., 2006; cited from earlier work
[12] = molecular target: T3, DAT; settings: in vitro findings; ref Rothman et al., 2002; cited from earlier work
[13] = system: extracellular dopamine and serotonin in rat nucleus accumbens; settings: systemic administration, ref Rothman et al., 2002; cited from earlier work
[14] = molecular target: T1, hDAT; settings: ref Solis et al., 2016; cited from earlier work

Compound | DAT / NET ratio (uptake inhibition) [1] | DAT / SERT ratio (uptake inhibition) [1] | IC50 [1] [µM] | NET / SERT ratio (uptake inhibition) [2] | IC50 [2] [µM] | IC50 [3] [µM] | Effect on efflux of [3H]MPP+ via hDAT versus basal [4] | Effect on efflux of [3H]MPP+ via hNET versus basal [5] | Effect on efflux of [3H]5-HT via hSERT versus basal [6] | EC50 [7] [µM] | DAT / NET ratio (release) [7] | DAT / SERT ratio (release) [7] | NET / SERT ratio (release) [8] | EC50 [9] [µM] | Ionic current mediated via hSERT ([10]; 30 µM) [pA] | Kind of current evoked in SERT-expressing cells [10] | Ionic current mediated via hSERT ([10]; 10 µM) | further results
CC1NCCOC1c1ccccc1F (centres unmarked) [2-FPM, 2-(2-Fluorophenyl)-3-methylmorpholine] | 0.97 | 340.1 | 1.33 ± 0.09 | 351.4 | 1.29 ± 0.03 | 454 ± 15.4 | increased tritium outflow above basal levels | increased tritium outflow above basal levels | no detectable effect | 0.112 ± 0.01 | 0.25 | 43 | 172 | 4.81 ± 1.26 | −4 | inwardly directed ionic currents | – | Effect on SERT mediated uptake ([3]; at concentrations below 30 µM): no obvious effect
CC1NCCOC1c1cccc(F)c1 (centres unmarked) [3-FPM, 2-(3-fluorophenyl)-3-methylmorpholine] | 1.31 | 96.4 | 1.16 ± 0.29 | 73.7 | 1.51 ± 0.17 | 112 ± 13.1 | – | – | – | 0.06 ± 0.004 | 0.28 | 21 | 75 | 1.27 ± 0.207 | – | inwardly directed ionic currents | −3.8 pA | –
CC1NCCOC1c1ccc(F)cc1 (centres unmarked) [4-FPM, 2-(4-fluorophenyl)-3-methylmorpholine] | 0.96 | 41.2 | 2.14 ± 0.39 | 42.9 | 2.05 ± 0.28 | 88.1 ± 1.83 | increased tritium outflow above basal levels | increased tritium outflow above basal levels | significantly enhanced basal release; also recorded: moderate release | 0.191 ± 0.017 | 0.30 | 10 | 33 | 1.89 ± 0.424 | – | inwardly directed ionic currents | −2.5 pA | –
NCCc1c[nH]c2ccc(O)cc12 [5-HT, 5-hydroxytryptamine, reference compound] | – | – | – | – | – | – | – | – | – | – | – | – | – | – | −7 | inwardly directed ionic currents | – | –
COC(=O)[C@H]1[C@@H](OC(=O)c2ccccc2)C[C@@H]2CC[C@H]1N2C [cocaine, reference compound] | – | – | – | – | – | – | – | – | – | – | – | – | – | – | – | – | outwardly directed current | –
CC1NCCOC1c1ccccc1 (centres unmarked) [phenmetrazine] | – | – | – | – | – | – | – | – | – | – | – | – | – | – | – | – | – | Interaction with VMAT2 as an inhibitor or substrate [11]: does not interact; DAT-selectivity compared to SERT [12]: at least 10 fold; Extracellular dopamine and serotonin in nucleus accumbens [13]: dose-related elevations; Current induced in cells expressing hDAT [14]: inwardly-directed sodium current

— PMC7294773 (Neuropharmacology, 2017)
